In article PMC8635029 (Frontiers in Pharmacology, 2021):
Where a name gives a salt, the structure may show the parent alone.

Columns and labels:
[1] = tested on: mice; test: Locomotor activity test (sedation)
[2] = tested on: ICR mice; test: Measurement of respiration (whole body plethysmography); type: in vivo
Protocol: A whole body plethysmography (DSI, US) was used to measure respiration in freely moving ICR mice (half male and half female) as described previously ([Manglik et al., 2016]; [Hill et al., 2018a]; [Hill et al., 2018b]) with some modifications. The respiratory frequency was recorded and then averaged for over 5-min period. The baseline values were recorded for 10 min before dosing. The mice were then removed from the chambers and given drugs, and respiration was then measured for 45 min.

[3] = tested on: SD rats; test: Hindpaw incision model (mechanical allodynia, von Frey); type: in vivo; details: 10 mg/kg
Protocol: The surgery was conducted as reported previously ([Brennan et al., 1996]; [Whiteside et al., 2004]; [Biddlestone et al., 2007]). Male SD rats were anesthetized with isoflurane inhalation (3–5%) and the plantar surface of the left hindpaw was sterilized using iodophor solution. A 1-cm longitudinal incision was made on the plantar surface with no. Eleven scalpel blade, starting at 0.5 cm from the heel and extending toward the toes. The deep fascia was cut to expose the flexor digitorum brevis muscle. The muscle was elevated with curved forceps and incised longitudinally with the tip of a scalpel blade without disturbing the origin and insertion. […] The responses to mechanical stimulation of the hindpaws were recorded at 2 h post-surgery and the mechanical pain thresholds were defined as pre-dose values. After dividing into different groups according to the pre-dose values, the animals were administered vehicle (normal saline) or test compounds and the mechanical pain thresholds were measured at 15 min and 24 h post-dose.
(§1) The rats were placed individually in Plexiglas chambers on a metallic mesh floor and allowed to acclimatize for 30–60 min ([Tsuda et al., 2011]). Mechanical allodynia was determined by probing the plantar surface of the hindpaw from below the mesh floor with a series of calibrated von Frey filaments (Stoelting) in log increments of force ([Lai et al., 2006]). […]

[4] = tested on: C57BL/6J mice; test: Hot-plate test; type: in vivo; details: 10 mg/kg
Protocol: The hot-plate test was performed according to previous reports ([DeWire et al., 2013]; [Hill et al., 2018a]; [Wang et al., 2018]). Female C57BL/6J mice were individually placed on a hot plate at 56°C and the latency to licking or jumping was then recorded. A cut-off time of 30 s was imposed in order to prevent tissue damage. Before drug administration, the latency of each mouse was measured and defined as the pre-drug value. The animals with a pre-drug value of greater than 20 s were excluded.

[5] = tested on: ICR mice; test: Acetic acid-induced writhing test; type: in vivo; details: 10 mg/kg s.c., 24 h post-dosing
Protocol: ICR mice (half male and half female) were used in this assay. […] A writhe was defined as a wave of contraction of the abdominal musculature followed by extension of the hind limbs ([Wang et al., 2018]). The percentage inhibition of writhes was calculated by the following formula: % antinociception = (Nv−Nt)/Nv × 100, where Nv is the number of writhes in vehicle group and Nt is the number of writhes in treatment groups.

[6] = tested on: SD rats; test: Chronic constriction injury (CCI) model (mechanical allodynia, von Frey); type: in vivo; details: 10 mg/kg
Protocol: The CCI surgery was performed as described previously with slight modifications ([Bennett and Xie, 1988]). Male SD rats were used in the CCI model. After isoflurane inhalation anesthesia, the femoral skin of the left hindlimb was incised and the sciatic nerve was exposed by blunt dissection of the biceps femoris muscle with a pair of forceps ([Chen et al., 2018]). A 2 mm-long polyethylene cuff was successively implanted around the nerve and the incision was then closed with skin stapler ([Bailey and Ribeiro-da-Silva, 2006]; [Balasubramanyan et al., 2006]). Animals were returned to their cages after recovering from anesthesia. Seventeen days after the surgery, the responses to mechanical stimulation of the hindpaws were measured before the compounds were administered. The rats were then divided into different groups according to the pre-administration values. After the animals were given vehicle or test compounds, the mechanical pain thresholds were taken at multiple time points.
as §1

[7] = tested on: ICR mice; test: Compound 48/80-induced scratching test; type: in vivo; details: 0.02 mg/kg
Protocol: After acclimatization for 30–60 min in Plexiglas chambers, the male ICR mice were given vehicle or test compounds. Compound 48/80 (50 μg, 0.1 ml) was subcutaneously injected into the back of the neck at 15 min after drug administration ([Salaga et al., 2015]). The mice were immediately placed back into the chambers and the scratching behaviors were recorded for 30 min ([Kobayashi et al., 2003]; [Inan et al., 2009]; [Hachisuka et al., 2010]). One bout of scratching was defined as the mouse lifting its hindpaw towards the injection site to scratch until it either licked or bite the hindpaw or placed it back down on the floor ([Nojima and Carstens, 2003]). The percentage inhibition of scratching was calculated by the following formula: % antipruritis = (Bv−Bt)/Bv × 100, where Bv is the bouts of scratching in vehicle group and Bt is the bouts of scratching in treatment groups.

Structure (SMILES): CC(C)C[C@@H](NC(=O)[C@@H](Cc1ccccc1)NC(=O)[C@H](N)Cc1ccccc1)C(=O)N[C@H](CCCCN)C(=O)N1CCC(N)(C(=O)O)CC1 [CR845]
- effect on locomotor activity / total distance traveled ([1]; 0.4 mg/kg, 15 min post-dosing): obvious decrease
- effect on respiratory rate ([2]; 2 mg/kg): significant decrease
- time post-administration at which respiratory rate was significantly decreased ([2]; 2 mg/kg): 25 min
- time post-drug at which effects on respiratory rate reached a peak ([2]; 2 mg/kg): 45 min

Structure (SMILES): CN1CC[C@]23c4c5ccc(O)c4O[C@H]2[C@@H](O)C=C[C@H]3[C@H]1C5 [morphine, morphine sulfate]
- effect on distance traveled ([1]; 10 mg/kg): reduced remarkedly
- effect on hindpaw incision-induced mechanical allodynia ([3]; 15 min after dosing): completely inhibited
- effect on pain behaviors ([3]; 24 h post-dosing): no any effect
- central antinociceptive effect in hot-plate test [4]: almost complete efficacy
- effect on respiratory rate ([2]; 10 mg/kg): significantly reduced
- efficacy in writhing test [5]: vanished
- effect on CCI-induced mechanical allodynia ([6]; 15 min after dosing): completely inhibited
- effect on pain behaviors ([6]; 24 h post-dosing): no any effect

Structure (SMILES): CN(C(=O)/C=C/c1ccoc1)[C@@H]1CC[C@@]2(O)[C@H]3Cc4ccc(O)c5c4[C@@]2(CCN3CC2CC2)[C@H]1O5 [nalfurafine, nalfurafine hydrochloride]
- inhibitory rate on scratching responses [7]: 94.30%
